In brackets after ≈: the same amount, converted by molar mass. Activity calls are given as the source filed them. The calls are words filed in the database; no cut-off is given here.
Experiments:
[1] = tested on: Nakaseomyces glabratus; test: Antifungal activity against Candida glabrata 203 assessed as fungal growth inhibition incubated for 48 hrs by broth microdilution method; type: functional
[2] = tested on: Candida albicans; test: Antifungal activity against Candida albicans SC5314 assessed as fungal growth inhibition incubated for 48 hrs in presence of K+ by broth microdilution method; type: functional, organism-based
[3] = tested on: Candida parapsilosis; test: Antifungal activity against Candida parapsilosis 105 assessed as fungal growth inhibition incubated for 48 hrs by broth microdilution method; type: functional; details: Lodderomyces parapsilosis
[4] = tested on: Candida albicans; test: Antifungal activity against Candida albicans SC5314 assessed as fungal growth inhibition incubated for 48 hrs in presence of Ca2+ by broth microdilution method; type: functional, organism-based
[5] = tested on: Candida albicans; test: Antifungal activity against Candida albicans SC5314 infected in C57BL/6 mouse assessed as mean fungal burden at 2 mg/kg, ip measured after 46 hrs by plate count method (reference value: 6.890 log10CFU/ml); type: functional
[6] = tested on: Cryptococcus neoformans; test: Antifungal activity against Cryptococcus neoformans BJ3 assessed as fungal growth inhibition incubated for 48 hrs by broth microdilution method; type: functional
[7] = tested on: Candida parapsilosis; test: Antifungal activity against Candida parapsilosis 106 assessed as fungal growth inhibition incubated for 48 hrs by broth microdilution method; type: functional; details: Lodderomyces parapsilosis
[8] = tested on: Cryptococcus neoformans; test: Antifungal activity against Cryptococcus neoformans HN15 assessed as fungal growth inhibition incubated for 48 hrs by broth microdilution method; type: functional
[9] = tested on: Candida albicans; test: Antifungal activity against Candida albicans SC5314 assessed as fungal growth inhibition incubated for 48 hrs in presence of Zn2+ by broth microdilution method; type: functional, organism-based
[10] = tested on: Candida albicans; test: Antifungal activity against Candida albicans SC5314 assessed as fungal growth inhibition incubated for 48 hrs by broth microdilution method; type: functional
[11] = Toxicity in C57BL/6 mouse infected with Candida albicans SC5314 assessed as mean survival time at 2 mg/kg, ip (reference value: 5 day); type: organism-based; details: in vivo, 120 h
[12] = tested on: Candida albicans; test: Antifungal activity against Candida albicans SC5314 assessed as fungal growth inhibition incubated for 48 hrs in presence of Mg2+ by broth microdilution method; type: functional, organism-based

For `Oc1c(I)cc(Cl)c2cccnc12` [CLIOQUINOL], the MIC [1] was 0.125 mg/L (≈ 0.409 µM), the “growth inhibition (GI)” value [2] was “Active” and the MIC [3] was 0.25 mg/L (≈ 0.818 µM). For the same molecule, the “growth inhibition (GI)” value [4] was “Active”, the Activity [5] was 6.683 log10CFU/g and the MIC [6] was 0.063 mg/L (≈ 0.206 µM). The MIC [7] was 0.25 mg/L (≈ 0.818 µM), the MIC [8] was 0.125 mg/L (≈ 0.409 µM) and the “growth inhibition (GI)” value [9] was “Active”. For the same molecule, the MIC [10] was 0.125 mg/L (≈ 0.409 µM), the Survival [11] was 5 days and the “growth inhibition (GI)” value [12] was “Active”.

From ChEMBL document CHEMBL5375952, “Discovery of Novel 8-Hydroxyquinoline Derivatives with Potent In Vitro and In Vivo Antifungal Activity” (J Med Chem, 2023)
